Tests used:
Assay in all cases: selective drug sensitivity score (sDSS, relative to normal bone marrow) (sDSS (score)); higher = more potent and effective on the cell line relative to normal bone marrow cells
Details in all cases: 72 h
[1] = system: PEER
[2] = system: KASUMI-9
[3] = system: MHH-CALL-4
[4] = system: LC4-1
[5] = system: COG-LL-317
[6] = system: 380
[7] = system: COG-LL-402h
[8] = system: KASUMI-10
[9] = system: P12-ICHIKAWA
[10] = system: SEM cells
[11] = system: COG-LL-394h
[12] = system: TANOUE
[13] = system: COG-LL-332h
[14] = system: HAL-01
[15] = system: NALL-1
[16] = system: SUP-B15
[17] = system: RCH-ACV
[18] = system: ALL-PO
[19] = system: MOLT-4
[20] = system: KARPAS-45
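Also: ALL cell lines in 384-well plates, five doses spanning 10,000-fold, each plate scaled between vehicle and 100 µmol/L benzalkonium chloride controls, sDSS an adapted area-under-curve metric.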

In the case of CCc1c2c(nc3ccc(O)cc13)-c1cc3c(c(=O)n1C2)COC(=O)[C@]3(O)CC [SN-38] (top concentration 10000 nM), the “selective drug sensitivity score” value [1] is reported as 12.8, the “selective drug sensitivity score” value [2] is reported as 23.5 and the “selective drug sensitivity score” value [3] is reported as 19.7. The “selective drug sensitivity score” value [4] was 27.1, the “selective drug sensitivity score” value [5] was 27.6 and the “selective drug sensitivity score” value [6] was 27. For the same compound, the “selective drug sensitivity score” value [7] was 21.1, the “selective drug sensitivity score” value [8] was 18.9 and the “selective drug sensitivity score” value [9] was 26.5. For the same compound, the “selective drug sensitivity score” value [10] was 25.4, the “selective drug sensitivity score” value [11] was 13.8 and the “selective drug sensitivity score” value [12] was -5.52. For the same compound, the “selective drug sensitivity score” value [13] was 27.6, the “selective drug sensitivity score” value [14] was 21.8 and the “selective drug sensitivity score” value [15] was 24.4. For the same compound, the “selective drug sensitivity score” value [16] was 26.9, the “selective drug sensitivity score” value [17] was 27.6 and the “selective drug sensitivity score” value [18] was 19.5. The “selective drug sensitivity score” value [19] was 28.2 and the “selective drug sensitivity score” value [20] was 3.98.

For CCN(CC)C(=S)SSC(=S)N(CC)CC [Disulfiram(+CuCl2)] (top concentration 50000 nM), the “selective drug sensitivity score” value [1] was -2.12, the “selective drug sensitivity score” value [2] was 2.28 and the “selective drug sensitivity score” value [3] was 3.38. For the same compound, the “selective drug sensitivity score” value [4] was 7.38, the “selective drug sensitivity score” value [5] was -2.12 and the “selective drug sensitivity score” value [6] was 1.58. The “selective drug sensitivity score” value [7] was -0.32, the “selective drug sensitivity score” value [8] was -1.52 and the “selective drug sensitivity score” value [9] was -2.12. The “selective drug sensitivity score” value [10] was -2.12, the “selective drug sensitivity score” value [11] was -1.02 and the “selective drug sensitivity score” value [12] was -1.62. The “selective drug sensitivity score” value [13] was -0.52, the “selective drug sensitivity score” value [14] was 16.3 and the “selective drug sensitivity score” value [15] was 16.1. The “selective drug sensitivity score” value [16] was 10.7, the “selective drug sensitivity score” value [17] was 5.38 and the “selective drug sensitivity score” value [18] was -2.12. The “selective drug sensitivity score” value [19] was -2.12 and the “selective drug sensitivity score” value [20] was -2.12.

With CC(C)Oc1ccc(C(=O)N[C@H](CNC(=O)CN(C)C)Cc2ccc(-c3cn4cccc([C@H](C)O)c4n3)cc2)cc1Cl (top concentration 10000 nM) the “selective drug sensitivity score” value [1] was 19.9, the “selective drug sensitivity score” value [2] was 10.3 and the “selective drug sensitivity score” value [3] was 0.78. For the same compound, the “selective drug sensitivity score” value [4] was 8.28, the “selective drug sensitivity score” value [5] was 16.6 and the “selective drug sensitivity score” value [6] was 10.7. The “selective drug sensitivity score” value [7] was 10.6, the “selective drug sensitivity score” value [8] was 6.88 and the “selective drug sensitivity score” value [9] was 7.28. For the same compound, the “selective drug sensitivity score” value [10] was 8.88, the “selective drug sensitivity score” value [11] was -0.72 and the “selective drug sensitivity score” value [12] was -9.32. For the same compound, the “selective drug sensitivity score” value [13] was 16.5, the “selective drug sensitivity score” value [14] was 1.98 and the “selective drug sensitivity score” value [15] was 9.88. For the same compound, the “selective drug sensitivity score” value [16] was 14.8, the “selective drug sensitivity score” value [17] was 18 and the “selective drug sensitivity score” value [18] was 6.88. For the same compound, the “selective drug sensitivity score” value [19] was 18.2 and the “selective drug sensitivity score” value [20] was 7.48.

CNC(=O)CN1CCC(Oc2cc3c(Nc4cccc(Cl)c4F)ncnc3cc2OC)CC1 [Sapitinib] (top concentration 1000 nM) was tested, and the “selective drug sensitivity score” value [1] was 0, the “selective drug sensitivity score” value [2] was 0 and the “selective drug sensitivity score” value [3] was 0. For the same compound, the “selective drug sensitivity score” value [4] was 0, the “selective drug sensitivity score” value [5] was 0 and the “selective drug sensitivity score” value [6] was 0. For the same compound, the “selective drug sensitivity score” value [7] was 0, the “selective drug sensitivity score” value [8] was 0 and the “selective drug sensitivity score” value [9] was 0. The “selective drug sensitivity score” value [10] was 0, the “selective drug sensitivity score” value [11] was 0 and the “selective drug sensitivity score” value [12] was 0. For the same compound, the “selective drug sensitivity score” value [13] was 0, the “selective drug sensitivity score” value [14] was 0 and the “selective drug sensitivity score” value [15] was 0. The “selective drug sensitivity score” value [16] was 0, the “selective drug sensitivity score” value [17] was 0 and the “selective drug sensitivity score” value [18] was 0. The “selective drug sensitivity score” value [19] was 0 and the “selective drug sensitivity score” value [20] was 0.

COC(=O)c1ccc2c(c1)NC(=O)/C2=C(\Nc1ccc(N(C)C(=O)CN2CCN(C)CC2)cc1)c1ccccc1 [Nintedanib] (top concentration 10000 nM) was tested, and the “selective drug sensitivity score” value [1] was 5.94, the “selective drug sensitivity score” value [2] was -1.26 and the “selective drug sensitivity score” value [3] was -1.66. For the same compound, the “selective drug sensitivity score” value [4] was -4.36, the “selective drug sensitivity score” value [5] was -1.76 and the “selective drug sensitivity score” value [6] was -4.56. The “selective drug sensitivity score” value [7] was 5.14, the “selective drug sensitivity score” value [8] was 14.1 and the “selective drug sensitivity score” value [9] was -2.96. The “selective drug sensitivity score” value [10] was 16, the “selective drug sensitivity score” value [11] was 2.14 and the “selective drug sensitivity score” value [12] was -6.36. For the same compound, the “selective drug sensitivity score” value [13] was 4.44, the “selective drug sensitivity score” value [14] was 3.34 and the “selective drug sensitivity score” value [15] was -2.76. The “selective drug sensitivity score” value [16] was 9.44, the “selective drug sensitivity score” value [17] was 3.64 and the “selective drug sensitivity score” value [18] was 11.1. For the same compound, the “selective drug sensitivity score” value [19] was -1.96 and the “selective drug sensitivity score” value [20] was 0.54.

CCOC(=O)C1=CCCC[C@H]1S(=O)(=O)Nc1ccc(F)cc1Cl [Resatorvid] (top concentration 10000 nM) was tested, and the “selective drug sensitivity score” value [1] was 0, the “selective drug sensitivity score” value [2] was 0 and the “selective drug sensitivity score” value [3] was 0. The “selective drug sensitivity score” value [4] was 0, the “selective drug sensitivity score” value [5] was 0 and the “selective drug sensitivity score” value [6] was 0. The “selective drug sensitivity score” value [7] was 0.4, the “selective drug sensitivity score” value [8] was 0 and the “selective drug sensitivity score” value [9] was 0. The “selective drug sensitivity score” value [10] was 0, the “selective drug sensitivity score” value [11] was 0 and the “selective drug sensitivity score” value [12] was 0. The “selective drug sensitivity score” value [13] was 0, the “selective drug sensitivity score” value [14] was 0 and the “selective drug sensitivity score” value [15] was 0. The “selective drug sensitivity score” value [16] was 0, the “selective drug sensitivity score” value [17] was 0 and the “selective drug sensitivity score” value [18] was 0. For the same compound, the “selective drug sensitivity score” value [19] was 0 and the “selective drug sensitivity score” value [20] was 0.

In the case of CC[C@@H](C(=O)[C@@H](C)[C@@H](O)[C@H](C)[C@@H]1O[C@@H]([C@@H](CC)C(=O)O)CC[C@@H]1C)[C@H]1O[C@]2(C=C[C@@H](O)[C@]3(CC[C@@](C)([C@H]4CC[C@](O)(CC)[C@H](C)O4)O3)O2)[C@H](C)C[C@@H]1C [Salinomycin] (top concentration 50000 nM), the “selective drug sensitivity score” value [1] is reported as 10.5, the “selective drug sensitivity score” value [2] is reported as -11.4 and the “selective drug sensitivity score” value [3] is reported as 8.5. The “selective drug sensitivity score” value [4] was -10.9, the “selective drug sensitivity score” value [5] was -2.2 and the “selective drug sensitivity score” value [6] was 2.6. For the same compound, the “selective drug sensitivity score” value [7] was -4, the “selective drug sensitivity score” value [8] was 1.8 and the “selective drug sensitivity score” value [9] was -2. The “selective drug sensitivity score” value [10] was -5.8, the “selective drug sensitivity score” value [11] was 3.2 and the “selective drug sensitivity score” value [12] was -7.5. For the same compound, the “selective drug sensitivity score” value [13] was -2.9, the “selective drug sensitivity score” value [14] was 5.6 and the “selective drug sensitivity score” value [15] was 2.2. For the same compound, the “selective drug sensitivity score” value [16] was -11.1, the “selective drug sensitivity score” value [17] was -15.4 and the “selective drug sensitivity score” value [18] was -13.2. The “selective drug sensitivity score” value [19] was -5.3 and the “selective drug sensitivity score” value [20] was 5.4.

In the case of Cc1sc2c(c1C)C(c1ccc(Cl)cc1)=N[C@@H](CC(=O)Nc1ccc(O)cc1)c1nnc(C)n1-2 [Birabresib] (top concentration 10000 nM), the “selective drug sensitivity score” value [1] is reported as -0.08, the “selective drug sensitivity score” value [2] is reported as 13.1 and the “selective drug sensitivity score” value [3] is reported as 6.02. For the same compound, the “selective drug sensitivity score” value [4] was 4.92, the “selective drug sensitivity score” value [5] was 9.12 and the “selective drug sensitivity score” value [6] was -9.68. The “selective drug sensitivity score” value [7] was 7.12, the “selective drug sensitivity score” value [8] was 7.02 and the “selective drug sensitivity score” value [9] was 5.22. For the same compound, the “selective drug sensitivity score” value [10] was 11.6, the “selective drug sensitivity score” value [11] was -0.08 and the “selective drug sensitivity score” value [12] was -4.78. For the same compound, the “selective drug sensitivity score” value [13] was -4.28, the “selective drug sensitivity score” value [14] was -0.78 and the “selective drug sensitivity score” value [15] was -3.58. The “selective drug sensitivity score” value [16] was 3.42, the “selective drug sensitivity score” value [17] was 12 and the “selective drug sensitivity score” value [18] was 5.22. The “selective drug sensitivity score” value [19] was -4.68 and the “selective drug sensitivity score” value [20] was 9.42.
